What all share (assay type): biochemical
Test [1] addresses T1, Recombinant human LOXL2 (lysyl oxidase like 2) (Homo sapiens, UniProt Q9Y4K0).
T1 construct: purchased R&D systems
T1 sequence (Q9Y4K0 26-774): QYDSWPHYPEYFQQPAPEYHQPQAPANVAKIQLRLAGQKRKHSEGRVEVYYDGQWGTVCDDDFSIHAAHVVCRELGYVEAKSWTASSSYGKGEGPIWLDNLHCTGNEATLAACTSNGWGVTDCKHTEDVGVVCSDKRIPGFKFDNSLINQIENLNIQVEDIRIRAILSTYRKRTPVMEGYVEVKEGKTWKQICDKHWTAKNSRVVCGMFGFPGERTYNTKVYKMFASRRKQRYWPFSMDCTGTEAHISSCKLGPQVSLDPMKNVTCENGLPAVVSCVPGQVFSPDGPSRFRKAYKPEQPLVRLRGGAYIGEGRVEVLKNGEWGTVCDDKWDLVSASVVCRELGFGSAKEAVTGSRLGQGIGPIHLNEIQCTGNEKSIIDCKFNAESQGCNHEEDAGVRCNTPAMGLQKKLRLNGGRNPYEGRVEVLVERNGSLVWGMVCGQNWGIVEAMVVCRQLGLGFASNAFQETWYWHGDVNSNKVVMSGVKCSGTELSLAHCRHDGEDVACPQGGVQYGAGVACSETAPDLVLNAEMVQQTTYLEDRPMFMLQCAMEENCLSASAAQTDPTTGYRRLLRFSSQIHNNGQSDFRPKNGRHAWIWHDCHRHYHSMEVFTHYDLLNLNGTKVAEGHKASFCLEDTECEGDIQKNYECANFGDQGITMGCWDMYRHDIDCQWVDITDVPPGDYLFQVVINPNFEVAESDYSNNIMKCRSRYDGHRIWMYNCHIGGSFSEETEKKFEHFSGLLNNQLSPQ
In words: LOXL2 inhibition assay (fluorometric, cadaverine/Amplex Red/HRP). As to conditions: IC50 class; recombinant human LOXL2, cadaverine substrate; read-out: Activity Range LOXL2. The essentials:
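Both enzymes assayed in 1.2 M urea, 50 mM sodium borate pH 8.0, 10 mM CaCl, with 30 min compound–enzyme preincubation at 37° C before cadaverine/Amplex Red/HRP addition. Fluorescence followed 60 min at 37° C; linear-slope rates, background-subtracted, as % of DMSO control, fitted by 4-parameter variable-slope curve (bottom fixed at 0).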

The target in test [2] is T2, Recombinant human LOXL3 (lysyl oxidase like 3) (Homo sapiens, UniProt P58215).
T2 construct: purchased R&D systems
T2 sequence (P58215 26-753): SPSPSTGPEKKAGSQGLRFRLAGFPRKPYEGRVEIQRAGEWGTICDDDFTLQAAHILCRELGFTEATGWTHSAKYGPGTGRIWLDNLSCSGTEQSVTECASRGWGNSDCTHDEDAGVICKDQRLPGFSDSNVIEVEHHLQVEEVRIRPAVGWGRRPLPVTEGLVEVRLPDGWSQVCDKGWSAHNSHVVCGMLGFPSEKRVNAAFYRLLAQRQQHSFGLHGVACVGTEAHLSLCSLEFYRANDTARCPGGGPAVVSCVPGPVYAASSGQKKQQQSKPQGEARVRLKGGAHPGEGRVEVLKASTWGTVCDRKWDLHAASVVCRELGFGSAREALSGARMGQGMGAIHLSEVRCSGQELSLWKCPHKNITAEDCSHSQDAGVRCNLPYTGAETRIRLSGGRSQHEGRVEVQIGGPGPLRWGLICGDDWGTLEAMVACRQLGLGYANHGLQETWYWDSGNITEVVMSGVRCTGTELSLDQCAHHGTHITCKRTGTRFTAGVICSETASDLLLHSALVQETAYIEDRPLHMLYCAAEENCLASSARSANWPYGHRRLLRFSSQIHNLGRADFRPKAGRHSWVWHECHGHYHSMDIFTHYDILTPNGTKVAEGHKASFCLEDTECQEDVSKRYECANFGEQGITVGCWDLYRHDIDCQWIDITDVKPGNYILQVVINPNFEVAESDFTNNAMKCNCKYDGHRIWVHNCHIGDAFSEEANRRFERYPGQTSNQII
Briefly: LOXL3 inhibition assay (fluorometric, cadaverine/Amplex Red/HRP). As to conditions: IC50 class; recombinant human LOXL3, cadaverine substrate; read-out: Activity Range LOXL3. How it is done: The ability of compounds to inhibit one or more of the lysyl oxidases LOXL2 and/or LOXL3 was determined using a fluorometric assay. This assay measures the activity of lysyl oxidases by coupling the reaction with horseradish peroxidase-catalyzed […]. The activity assay protocol uses cadaverine as substrate that releases hydrogen peroxide upon transformation by the specific LOX family enzyme present in the sample. Hydrogen peroxide is in turn detected using a red fluorescence substrate for HRP-coupled reactions (Amplex Red Enzyme Assays, Thermo Scientific Fisher). This leads to increase in fluorescence that can be easily detected at Ex/Em=540/590 nm in a fluorescence microplate reader.
Enzymes: Recombinant human LOXL2 (lysyl oxidase like 2) and recombinant human LOXL3 (lysyl oxidase like 3) were purchased from R&D systems and assays were performed in 1.2 M urea, 50 mM sodium borate buffer pH 8.0, and 10 mM CaCl.
Reaction: Final concentration in the LOXL2 and LOXL3 assays were as following and performed in a total volume of […]:
Experimental procedure: 5 μl of freshly prepared reaction buffer were delivered to reaction wells. Compounds were resuspended in 100% DMSO at 10 mM and delivered into buffer using acoustic technology (Echo550; nanoliter range). A 3× solution of LOXL2 or LOXL3 in reaction buffer was prepared (“enzyme solution”) and 5 μL of enzyme solution was added into the reaction wells. Buffer only was added to column 1 for no protein control. Reactions were incubated for 30 minutes at 37° C. A 3×mixture of cadaverine, Amplex Red, and HRP (“Substrate/Detection Mix) was prepared and subsequently 5 μL of the mixture added to each reaction well. Progress of reactions was monitored for 60 minutes at 37° C. using Clariostar plate reader (ex 530-12, ems 600-40). For all activity assays, pan-LOX inhibitor CCT365623 (Tang et al, 2017) and LOXL2/LOXL3 inhibitor PAT-1251 (PharmaKea) were included as standards.
Data analysis: Slope of the linear portion of the progress curve was calculated using Clariostar software. Typical analysis interval was between 8-30 min, but varied between experiments. The background subtracted signals (No protein wells are considered as background) were converted to % activity relative to DMSO controls. Data was analyzed using GraphPad Prism 4 with “sigmoidal dose-response (variable slope)”; 4 parameters with Hill Slope. Constraints: Bottom=Constant equal to 0. Top=Must be less than 120.

The target in test [3] is T3, Bovine lysyl oxidase (LOX) (Bos taurus, UniProt P33072).
T3 construct: from tissue; host or cells: adult bovine tendon
T3 sequence (P33072 170-418): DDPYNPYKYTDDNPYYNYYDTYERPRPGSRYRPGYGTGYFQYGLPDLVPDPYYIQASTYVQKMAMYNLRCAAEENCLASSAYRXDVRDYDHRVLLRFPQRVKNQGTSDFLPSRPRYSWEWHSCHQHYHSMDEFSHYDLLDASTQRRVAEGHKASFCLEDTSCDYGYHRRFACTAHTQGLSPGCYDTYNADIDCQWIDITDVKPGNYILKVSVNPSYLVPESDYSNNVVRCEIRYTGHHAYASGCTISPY
Briefly: LOX inhibition assay (fluorometric, cadaverine/Amplex Red/HRP). As to conditions: IC50 class; bovine tendon LOX, cadaverine substrate; read-out: Activity Range LOX. Summed up: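 Bovine tendon-extracted LOX was preincubated 30 min at 37 °C with compound. Cadaverine/Amplex Red/HRP was then added and fluorescence (ex530/em600) monitored for 120 min at 37 °C. Progress-curve slopes, background-subtracted against no-protein wells, were normalised to DMSO controls and fitted with a four-parameter variable-slope dose-response model.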

This passage reports IC50 results from US20230310445A1, “LOX ENZYME INHIBITING METHODS AND COMPOSITIONS” (ANOVIA BIOSCIENCES, INC., priority 2020, published 2023).

Where only a bound is given, the exact number is not on record here.

In the case of `NCc1cccc(S(=O)(=O)N2C[C@@H](C(=O)N3CCS(=O)(=O)CC3)C[C@@H](c3ccccc3)C2)n1` (racemic) [Example 115, cis-(1-((6-(Aminomethyl)pyridin-2-yl)sulfonyl)-5-phenylpiperidin-3-yl)(1,1-dioxidothiomorpholino)methanone 2,2,2-trifluoroacetate], the IC50 in test [1] and in test [2] was above 30 µM throughout.
Turning to `NCc1cccc(S(=O)(=O)N2C[C@H](C(=O)N3CCOCC3)C[C@@H](c3ccccc3)C2)n1` (racemic) [Example 114T, trans-(1-((6-(Aminomethyl)pyridin-2-yl)sulfonyl)-5-phenylpiperidin-3-yl)(morpholino)methanone 2,2,2-trifluoroacetate], the IC50 is 1 to 30 µM in test [1] and above 30 µM in test [2].
As for `CS(=O)(=O)N1C[C@@H](Oc2cc(CN)ccc2F)C[C@H](c2ccccc2F)C1` (racemic) [Example 93, trans-(4-Fluoro-3-((-5-(2-fluorophenyl)-1-(methylsulfonyl)piperidin-3-yl)oxy)phenyl)methanamine 2,2,2-trifluoroacetate], the IC50 was at most 0.5 µM in test [1] and above 30 µM in test [3].
With `NCc1cccc(S(=O)(=O)[C@H]2C[C@@H](C(=O)N3CCOCC3)CN(C3CCCCC3)C2)c1` (racemic) [Example 142, cis-(5-((3-(Aminomethyl)phenyl)sulfonyl)-1-cyclohexylpiperidin-3-yl)(morpholino)methanone 2,2,2-trifluoroacetate], the IC50 was at most 0.5 µM in test [1] and above 30 µM in test [3].
